Laboratory results taken from ChEMBL document CHEMBL1126704, “Dibenzoxepin derivatives: thromboxane A2 synthase inhibition and thromboxane A2 receptor antagonism combined in one molecule” (J Med Chem, 1993).

Tests used:
[1] = Tested for specific binding of radioligand [3H]U-46619 to thromboxane A2/prostaglandin H2 receptor in guinea pig washed platelets; design: species or system Cavia porcellus
[2] = Tested for specific binding of radioligand [3H]U-46619 to thromboxane A2 /prostaglandin H2 receptor in guinea pig washed platelets; design: species or system Cavia porcellus
[3] = organism: Homo sapiens; test: In vitro inhibition of U-46619 (3 uM) -induced human platelet aggregation; type: functional
[4] = test system: Rattus norvegicus; test: Tested for the effect at 30 mg/kg through peroral route on rat blood urea nitrogen, 48 hr after reperfusion; (p<0.05); type: functional; conditions: route oral
[5] = test system: Rattus norvegicus; test: Tested for the effect at 30 mg/kg through peroral route on rat blood urea nitrogen, 24 hr after reperfusion; (p<0.01); type: functional; conditions: route oral
[6] = test system: Rattus norvegicus; test: Tested for the effect at 30 mg/kg through peroral route on rat serum creatinine, 48 hr after reperfusion; type: functional, organism-based; design: dose 30 mg/kg
[7] = test system: Rattus norvegicus; test: Tested for the effect at 30 mg/kg through peroral route on rat serum creatinine, 24 hr after reperfusion; (p<0.05); type: functional, organism-based; design: dose 30 mg/kg
[8] = organism: Cavia porcellus; test: Tested for inhibition against thromboxane A2/prostaglandin H2 receptor in guinea pig washed platelets using radioligand [3H]U-46619 at 100 uM
[9] = test system: Thromboxane-A synthase (Bos taurus); test: Tested against TXA2 synthase in bovine platelet microsome at 10 uM
[10] = organism: Cavia porcellus; test: Tested for inhibition against thromboxane A2/prostaglandin H2 receptor in guinea pig washed platelets using radioligand [3H]U-46619 at 1 uM

O=C(O)c1ccc2c(c1)/C(=C/Cn1ccnc1)c1ccccc1CO2
Ki [1]: 600 nM

O=C(O)c1ccc2c(c1)/C(=C\Cn1ccnc1)c1ccccc1CO2
Ki [1]: 4500 nM

O=C(O)c1ccc2c(c1)/C(=N\Cc1cccnc1)c1ccccc1CO2
Ki [2]: 120 nM

O=C(O)c1ccc2c(c1)/C(=C\Cc1cccnc1)c1ccccc1CO2
Ki [1]: 180 nM
IC50 [3]: 9600 nM
Blood urea nitrogen [4]: 30.37
Blood urea nitrogen [5]: 34.18
Serum creatinine [6]: 1.16
Serum creatinine [7]: 1.48

C/C(=C\c1ccc(Cc2cccnc2)cc1)C(=O)O
inhibition [8]: 14%

O=C(O)c1ccc2c(c1)C(SCc1ccccc1)c1ccccc1CO2 (racemic)
Ki [1]: 40 nM
inhibition [9]: 19%

O=C(O)c1ccc2c(c1)C(SCc1cccnc1)c1ccccc1CO2 (racemic)
Ki [1]: 250 nM

O=C(O)c1ccc2c(c1)C(NCc1ccccc1)c1ccccc1CO2 (racemic)
inhibition [10]: 6%
inhibition [9]: -4%

O=C(O)c1ccc2c(c1)C(NCc1cccnc1)c1ccccc1CO2 (racemic)
inhibition [10]: 12%

O=C(O)c1ccc2c(c1)C(SCc1cccnc1)c1ccccc1CO2 (single isomer, unassigned; (+))
Ki [1]: 8200 nM

O=C(O)c1ccc2c(c1)C(SCc1cccnc1)c1ccccc1CO2 (stereo in doubt; (-)-3)
Ki [1]: 85 nM

O=C(O)CCCC/C=C(\c1ccccc1)c1cccnc1 [(E)-ISBOGREL]
IC50 [3]: 280000 nM
Ki [2]: 2700 nM
Blood urea nitrogen [4]: 48.38
Blood urea nitrogen [5]: 58.07
Serum creatinine [6]: 2.02
Serum creatinine [7]: 2.07
